The text below walks through data of patent US11548868B2, “Heterocyclic compounds, compositions comprising heterocyclic compound, and methods of use thereof” (JS INNOPHARM (SHANGHAI) LTD, priority 2017, dated 2023).

Experiment [1] concerns the target T1, IDO1 in Hela cancer cells (Homo sapiens, UniProt P14902).
T1 construct: endogenous in cells; host or cells: Hela cancer cells stimulated with human IFN-γ
Briefly: IDO1 Cellular Assay (kynurenine production in IFN-γ stimulated Hela cancer cells). Conditions: human IFN-γ 50 ng/mL, 48 hours incubation, kynurenine at 490 nm. The format is cell-based. Here is the method: Hela cancer cells (5×10^3 per well) with 85 μL DMEM medium containing 10% FBS were seeded in a 96-well plate and incubated at 95% humidity and 5% CO2 at 37° C. for 24 hours. human IFN-γ (10 μL, 50 ng/mL final concentration) and 5 μL serial dilutions of the test compounds were added into each well. The test compounds were dissolved in DMSO, and successively diluted with pH7.5 buffer (with final DMSO concentration of 0.25%) resulting in final concentrations of the test compounds ranging from 0 to 25 μM (0, 2.5, 7.5, 25, 75, 250, 750, 2500, 7500, & 25000 nM). After 48 hours of incubation, 70 uL of the supernatant per well was transferred to a new 96 well plate. Trichloroacetic acid (6.1 N, 8 μL) was mixed into each well and incubated at 50° C. for 30 min to hydrolyze N-formylkynurenine produced by IDO to kynurenine. The reaction mixture was then centrifuged for 10 min at 2500 RPM to remove sediments. 50 μL of the supernatant per well was transferred to another 96 well plate and mixed with 50 uL of 2% (w/v) p-dimethylaminobenzaldehyde in acetic acid. The yellow color derived from kynurenine was measured at 490 nm using a microplate reader. Percent inhibition of the test compounds was determined by measuring the decrease in kynurenine as compared to the control of DMSO vehicle, which was calculated by formula of (WC-WT)/WC, where WC is the mean absorbance of the control well minus blank well; WT is the mean absorbance of the test well minus the blank well. Data was analyzed by GraphPad Prism 5 and the IC50 values were obtained by non-linear regression.
The IC50 values of for Compounds disclosed are listed in Table 2, A′: ≤0.5 μM; B′: >0.5 μM and ≤1 μM; C′: >1.0 μM and ≤5 uM; and D′: >5 μM.

Experiment [2] deals with T2, TDO2 in A172 cancer cells (Homo sapiens, UniProt P48775).
T2 construct: endogenous in cells; host or cells: A172 cancer cells
T2 sequence (P48775 whole entry): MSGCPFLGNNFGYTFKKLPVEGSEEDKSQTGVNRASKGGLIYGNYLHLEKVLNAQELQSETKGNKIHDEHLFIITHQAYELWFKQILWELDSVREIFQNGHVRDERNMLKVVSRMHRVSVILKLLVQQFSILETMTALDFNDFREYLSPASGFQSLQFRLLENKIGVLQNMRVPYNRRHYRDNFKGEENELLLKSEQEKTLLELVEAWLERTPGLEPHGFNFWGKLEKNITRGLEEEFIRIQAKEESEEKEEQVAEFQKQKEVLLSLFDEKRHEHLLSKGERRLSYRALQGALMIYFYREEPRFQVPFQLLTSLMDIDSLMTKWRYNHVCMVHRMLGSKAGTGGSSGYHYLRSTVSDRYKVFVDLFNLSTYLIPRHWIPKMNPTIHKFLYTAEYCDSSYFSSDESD
The experiment in a line: TDO2 Cellular Assay (kynurenine production in A172 cancer cells). The format is cell-based. Conditions: L-Trp 1 mM, 24 hours incubation, kynurenine at 490 nm. In short, it runs like this:
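A172 cells seeded overnight, then given 1 mM L-Trp and test compound (0–25 μM, 0.25% DMSO) for 24 h at 37 °C. Supernatant treated with TCA at 50 °C to convert N-formylkynurenine, kynurenine detected with p-dimethylaminobenzaldehyde at 490 nm; IC50 by non-linear regression of inhibition versus DMSO control.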

Each structure is given as a SMILES string. Some results are limits rather than exact numbers.

T1 sequence (P14902 whole entry): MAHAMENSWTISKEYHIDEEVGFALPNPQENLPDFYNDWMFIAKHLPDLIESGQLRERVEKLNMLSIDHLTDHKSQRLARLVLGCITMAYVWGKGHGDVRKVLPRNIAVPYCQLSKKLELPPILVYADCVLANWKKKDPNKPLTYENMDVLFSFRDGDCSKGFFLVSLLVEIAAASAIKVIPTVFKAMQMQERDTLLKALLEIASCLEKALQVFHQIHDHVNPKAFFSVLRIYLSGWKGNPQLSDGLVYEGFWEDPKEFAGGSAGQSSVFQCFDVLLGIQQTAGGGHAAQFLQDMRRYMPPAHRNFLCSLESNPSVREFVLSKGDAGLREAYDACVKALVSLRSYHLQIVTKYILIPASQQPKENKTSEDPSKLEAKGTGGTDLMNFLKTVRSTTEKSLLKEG

As to `O=C(c1ccncc1)N1C[C@@H]2C[C@@](O)(c3cc(Cl)cc4[nH]ncc34)C[C@@H]2C1` [Example 40, ((3aR,5r,6aS)-5-(6-chloro-1H-indazol-4-yl)-5-hydroxyhexahydrocyclopenta[c]pyrrol-2(1H)-yl)(pyridin-4-yl)methanone], the figures for the IC50 in experiment [1] and in experiment [2] were over 5 µM and at most 0.5 µM, respectively.

For the compound `N#Cc1ccc(C(=O)N2C[C@@H]3C[C@@](O)(c4cc(Cl)cc5[nH]ncc45)C[C@@H]3C2)cc1` [Example 42, 4-((3aR,5r,6aS)-5-(6-chloro-1H-indazol-4-yl)-5-hydroxyoctahydrocyclopenta[c]pyrrole-2-carbonyl)benzonitrile], the IC50 in experiment [1] was 1 to 5 µM; in experiment [2], at most 0.5 µM.

In the case of `CS(=O)(=O)N1C[C@@H]2C[C@@](O)(c3cc(Cl)cn4cncc34)C[C@@H]2C1` [Example 52, (3aR,5r,6aS)-5-(6-chloroimidazo[1,5-a]pyridin-8-yl)-2-(methylsulfonyl)octahydrocyclopenta[c]pyrrol-5-ol], the IC50 in experiment [1] is 1 to 5 µM; in experiment [2] it was at most 0.5 µM.

For the compound `CS(=O)(=O)N1C[C@@H]2C[C@@](O)(c3c(Cl)ccc4cncn34)C[C@@H]2C1` [Example 53, (3aR,5r,6aS)-5-(6-chloroimidazo[1,5-a]pyridin-5-yl)-2-(methylsulfonyl)octahydrocyclopenta[c]pyrrol-5-ol], the IC50 was over 5 µM in experiment [1] and 1 to 5 µM in experiment [2].

For the compound `CS(=O)(=O)N[C@H]1[C@@H]2C[C@@](O)(c3cc(Cl)cc4[nH]ncc34)C[C@@H]21` [Example 63, N-((1R,3r,5S,6r)-3-(6-chloro-1H-indazol-4-yl)-3-hydroxybicyclo[3.1.0]hexan-6-yl)methanesulfonamide], the IC50 in experiment [1] is 0.5 to 1 µM; in experiment [2], at most 0.5 µM.

Turning to `CC(=O)N[C@H]1[C@@H]2C[C@@](O)(c3cc(Cl)cc4[nH]ncc34)C[C@@H]21` [Example 64, N-((1R,3r,5S,6r)-3-(6-chloro-1H-indazol-4-yl)-3-hydroxybicyclo[3.1.0]hexan-6-yl)acetamide], the figures for the IC50 in experiment [1] and in experiment [2] were over 5 µM and at most 0.5 µM, respectively.

With `O=C(N[C@H]1[C@@H]2C[C@@](O)(c3cc(Cl)cc4[nH]ncc34)C[C@@H]21)c1ccncc1` [Example 83, N-((1R,3r,5S,6r)-3-(6-chloro-1H-indazol-4-yl)-3-hydroxybicyclo[3.1.0]hexan-6-yl)isonicotinamide], the IC50 was 0.5 to 1 µM in experiment [1] and at most 0.5 µM in experiment [2].

For `CNS(=O)(=O)N1C[C@@H]2C[C@@](O)(c3cc(Cl)cc4[nH]ncc34)C[C@@H]2C1` [Example 87, (3aR,5r,6aS)-5-(6-chloro-1H-indazol-4-yl)-5-hydroxy-N-methylhexahydrocyclopenta[c]pyrrole-2(1H)-sulfonamide], the values for the IC50 in experiment [1] and in experiment [2] were 1 to 5 µM and at most 0.5 µM, respectively.

Consider `O=C(N[C@H]1[C@@H]2C[C@@](O)(c3cc(Cl)cc4[nH]ncc34)C[C@@H]21)c1ccccc1` [Example 93, N-((1R,3r,5S,6r)-3-(6-chloro-1H-indazol-4-yl)-3-hydroxybicyclo[3.1.0]hexan-6-yl)benzamide], for which the values for the IC50 in experiment [1] and in experiment [2] were 0.5 to 1 µM and at most 0.5 µM, respectively.

As for `O=S(=O)(N[C@H]1[C@@H]2C[C@@](O)(c3cc(Cl)cc4[nH]ncc34)C[C@@H]21)c1ccccc1` [Example 95, N-((1R,3r,5S,6r)-3-(6-chloro-1H-indazol-4-yl)-3-hydroxybicyclo[3.1.0]hexan-6-yl)benzenesulfonamide], the IC50 is over 5 µM in experiment [1] and at most 0.5 µM in experiment [2].

Turning to `CS(=O)(=O)N1C[C@@H]2C[C@@](O)(c3cc(Cl)cc4cn[nH]c34)C[C@@H]2C1` [Example 96, (3aR,5r,6aS)-5-(5-chloro-1H-indazol-7-yl)-2-(methylsulfonyl)octahydrocyclopenta[c]pyrrol-5-ol], the IC50 in experiment [1] and in experiment [2] was 1 to 5 µM throughout.

In general, IC50 refers to the concentration at which inhibition is half-maximal. Lower therefore signals inhibition by little substance.
